Assay results as given in the NIST ThermoML archive (doi:10.1021/acs.jced.5b00845).

Assay: mn = molality of the nth substance listed, in mol/kg
Conditions: 100 kPa, Liquid, Capillary tube (Ostwald / Ubbelohde) method

O=CC[C@H](O)[C@H](O)CO [2-deoxy-D-erythropentose] + O
viscosity [mPa·s]
Conditions | m1 = 0.05709 | m1 = 0.07583 | m1 = 0.09188 | m1 = 0.09812 | m1 = 0.1124 | m1 = 0.1366 | m1 = 0.1466
288.15 K | 1.163 | 1.172 | 1.179 | 1.181 | 1.188 | 1.198 | 1.202
298.15 K | 0.909 | 0.915 | 0.92 | 0.922 | 0.927 | 0.935 | 0.938
308.15 K | 0.734 | 0.738 | 0.742 | 0.744 | 0.747 | 0.753 | 0.755
318.15 K | 0.607 | 0.611 | 0.614 | 0.615 | 0.618 | 0.623 | 0.624

OC[C@H]1OC(O)C[C@@H](O)[C@@H]1O (stereo partly drawn) [2-deoxy-D-glucose] + O
viscosity [mPa·s]
Conditions | m1 = 0.04241 | m1 = 0.05017 | m1 = 0.05842 | m1 = 0.08671 | m1 = 0.09745 | m1 = 0.1223 | m1 = 0.141
288.15 K | 1.16 | 1.164 | 1.168 | 1.182 | 1.188 | 1.2 | 1.21
298.15 K | 0.907 | 0.909 | 0.913 | 0.923 | 0.927 | 0.936 | 0.943
308.15 K | 0.732 | 0.734 | 0.736 | 0.744 | 0.747 | 0.754 | 0.76
318.15 K | 0.606 | 0.608 | 0.609 | 0.616 | 0.618 | 0.624 | 0.628

OC[C@H]1O[C@@](CO)(O[C@H]2O[C@H](CO)[C@@H](O)[C@H](O)[C@H]2O)[C@@H](O[C@H]2O[C@H](CO)[C@@H](O)[C@H](O)[C@H]2O)[C@@H]1O + O
viscosity [mPa·s]
Conditions | m1 = 0.06211 | m1 = 0.07242 | m1 = 0.08043 | m1 = 0.09028 | m1 = 0.1045 | m1 = 0.1256 | m1 = 0.1344 | m1 = 0.1457
288.15 K | 1.237 | 1.253 | 1.266 | 1.281 | 1.303 | 1.335 | 1.348 | 1.365
298.15 K | 0.965 | 0.977 | 0.987 | 0.998 | 1.015 | 1.039 | 1.049 | 1.061
308.15 K | 0.777 | 0.786 | 0.793 | 0.802 | 0.815 | 0.833 | 0.841 | 0.851
318.15 K | 0.642 | 0.65 | 0.655 | 0.663 | 0.673 | 0.687 | 0.694 | 0.701

O=P([O-])([O-])[O-].[K+].[K+].[K+] [tripotassium phosphate] + O
viscosity [mPa·s]
Conditions | 288.15 K | 298.15 K | 308.15 K | 318.15 K
m1 = 0.5 | 1.414 | 1.133 | 0.915 | 0.708
m1 = 1 | 1.7 | 1.349 | 1.09 | 0.838
m1 = 1.5 | 2.004 | 1.598 | 1.281 | 1.003
m1 = 2 | 2.299 | 1.806 | 1.441 | 1.116

O=C[C@@H](O)[C@@H](O)[C@H](O)[C@H](O)CO [D-mannose] + O
viscosity [mPa·s]
Conditions | m1 = 0.0537 | m1 = 0.07266 | m1 = 0.08053 | m1 = 0.08978 | m1 = 0.1058 | m1 = 0.1176
288.15 K | 1.169 | 1.179 | 1.184 | 1.189 | 1.199 | 1.206
298.15 K | 0.912 | 0.92 | 0.924 | 0.928 | 0.934 | 0.939
308.15 K | 0.736 | 0.741 | 0.744 | 0.747 | 0.753 | 0.756
318.15 K | 0.609 | 0.614 | 0.616 | 0.618 | 0.622 | 0.625

O=C[C@H](O)[C@@H](O)[C@H](O[C@@H]1O[C@H](CO)[C@H](O)[C@H](O)[C@H]1O)[C@H](O)CO [4-O-β-D-galactopyranosyl-D-glucose] + O
viscosity [mPa·s]
Conditions | m1 = 0.04915 | m1 = 0.0521 | m1 = 0.06429 | m1 = 0.07299 | m1 = 0.09149 | m1 = 0.1001 | m1 = 0.1211 | m1 = 0.1528
288.15 K | 1.198 | 1.202 | 1.216 | 1.227 | 1.249 | 1.259 | 1.284 | 1.321
298.15 K | 0.936 | 0.938 | 0.949 | 0.957 | 0.974 | 0.982 | 1 | 1.028
308.15 K | 0.755 | 0.757 | 0.766 | 0.772 | 0.785 | 0.791 | 0.806 | 0.828
318.15 K | 0.625 | 0.626 | 0.633 | 0.638 | 0.649 | 0.654 | 0.665 | 0.683

CO[C@H]1O[C@H](CO)[C@@H](O)[C@H](O)[C@@H]1O [α-methyl mannopyranoside] + O
viscosity [mPa·s]
Conditions | m1 = 0.05551 | m1 = 0.0769 | m1 = 0.09681 | m1 = 0.1166 | m1 = 0.1344 | m1 = 0.1466 | m1 = 0.1632
288.15 K | 1.172 | 1.185 | 1.197 | 1.209 | 1.22 | 1.227 | 1.237
298.15 K | 0.916 | 0.925 | 0.934 | 0.943 | 0.951 | 0.956 | 0.964
308.15 K | 0.739 | 0.746 | 0.753 | 0.76 | 0.766 | 0.77 | 0.775
318.15 K | 0.611 | 0.617 | 0.623 | 0.628 | 0.633 | 0.636 | 0.64

O=C[C@H](O)[C@@H](O)[C@H](O)CO [D-xylose] + O
viscosity [mPa·s]
Conditions | m1 = 0.05317 | m1 = 0.06636 | m1 = 0.07781 | m1 = 0.08585 | m1 = 0.1009 | m1 = 0.1145
288.15 K | 1.159 | 1.165 | 1.169 | 1.173 | 1.179 | 1.185
298.15 K | 0.906 | 0.91 | 0.914 | 0.917 | 0.921 | 0.925
308.15 K | 0.732 | 0.735 | 0.737 | 0.739 | 0.743 | 0.746
318.15 K | 0.606 | 0.608 | 0.61 | 0.612 | 0.614 | 0.618

C[C@@H]1O[C@@H](O)[C@H](O)[C@H](O)[C@H]1O [6-deoxy-α-L-mannopyranose] + O
viscosity [mPa·s]
Conditions | m1 = 0.04655 | m1 = 0.05637 | m1 = 0.08317 | m1 = 0.0856 | m1 = 0.1109 | m1 = 0.1248 | m1 = 0.1471
288.15 K | 1.165 | 1.171 | 1.186 | 1.187 | 1.202 | 1.21 | 1.222
298.15 K | 0.91 | 0.914 | 0.925 | 0.926 | 0.937 | 0.943 | 0.952
308.15 K | 0.734 | 0.737 | 0.746 | 0.747 | 0.755 | 0.759 | 0.766
318.15 K | 0.608 | 0.61 | 0.617 | 0.618 | 0.623 | 0.627 | 0.632

CO[C@H]1O[C@H](CO)[C@@H](O)[C@H](O)[C@H]1O [methyl-α-D-glucopyranoside] + O
viscosity [mPa·s]
Conditions | m1 = 0.06502 | m1 = 0.07733 | m1 = 0.09597 | m1 = 0.1109 | m1 = 0.1219 | m1 = 0.122 | m1 = 0.1465
288.15 K | 1.174 | 1.181 | 1.191 | 1.2 | 1.207 | 1.206 | 1.219
298.15 K | 0.917 | 0.922 | 0.929 | 0.935 | 0.941 | 0.94 | 0.95
308.15 K | 0.74 | 0.744 | 0.749 | 0.754 | 0.758 | 0.757 | 0.765
318.15 K | 0.612 | 0.615 | 0.619 | 0.623 | 0.625 | 0.626 | 0.631

O=P([O-])(O)O.[K+] [monopotassium phosphate] + O
viscosity [mPa·s]
Conditions | 288.15 K | 298.15 K | 308.15 K | 318.15 K
m1 = 0.25 | 1.236 | 0.972 | 0.777 | 0.633
m1 = 0.5 | 1.301 | 1.025 | 0.815 | 0.666
m1 = 1 | 1.539 | 1.159 | 0.939 | 0.763
m1 = 1.25 | 1.636 | 1.294 | 1.027 | 0.84

N.O=P(O)(O)O [ammonium dihydrogen phosphate] + O
viscosity [mPa·s]
Conditions | 288.15 K | 298.15 K | 308.15 K | 318.15 K
m1 = 0.5 | 1.29 | 1.014 | 0.822 | 0.659
m1 = 1 | 1.472 | 1.172 | 0.942 | 0.741
m1 = 1.5 | 1.672 | 1.332 | 1.049 | 0.822
m1 = 2 | 1.831 | 1.463 | 1.161 | 0.908
